According to patent US7074789B2, “Kinase inhibitors” (Amgen Inc., priority 1999, dated 2006):
Where “and” joins values, the source holds several entries; their conditions need not be identical. Equal entries are not always repeated.

Assays:
Format in all cases: biochemical
PDGFRB = molecular target: T1, PDGFRB (Homo sapiens, UniProt P09619); test: Kinase inhibition assay (33P transfer), PDGFRB; conditions: read-out: PDGFRB-1
T1 construct: Kinases are expressed as either kinase domains or full length constructs; made in house

Lck = molecular target: T2, Lck (Homo sapiens, UniProt P06239); test: Kinase inhibition assay (33P transfer), Lck; conditions: Table 3, class symbols; read-out: Lck-1
T2 construct: Kinases are expressed as either kinase domains or full length constructs; made in house
How it was run: (§1)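 Liquid scintillation counting of 33P on plate-bound synthetic substrates gives kinase activity. Plates are washed in 0.5% phosphoric acid first; kinases are tagged recombinant proteins from E. coli or baculovirus-infected High Five cells.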

Kdr = molecular target: T3, Kdr (Homo sapiens, UniProt P35968); test: Kinase inhibition assay (33P transfer), Kdr; conditions: Table 3, class symbols; read-out: KDR-1
T3 construct: Kinases are expressed as either kinase domains or full length constructs; made in house
T3 sequence (P35968 20-1356, species assumed): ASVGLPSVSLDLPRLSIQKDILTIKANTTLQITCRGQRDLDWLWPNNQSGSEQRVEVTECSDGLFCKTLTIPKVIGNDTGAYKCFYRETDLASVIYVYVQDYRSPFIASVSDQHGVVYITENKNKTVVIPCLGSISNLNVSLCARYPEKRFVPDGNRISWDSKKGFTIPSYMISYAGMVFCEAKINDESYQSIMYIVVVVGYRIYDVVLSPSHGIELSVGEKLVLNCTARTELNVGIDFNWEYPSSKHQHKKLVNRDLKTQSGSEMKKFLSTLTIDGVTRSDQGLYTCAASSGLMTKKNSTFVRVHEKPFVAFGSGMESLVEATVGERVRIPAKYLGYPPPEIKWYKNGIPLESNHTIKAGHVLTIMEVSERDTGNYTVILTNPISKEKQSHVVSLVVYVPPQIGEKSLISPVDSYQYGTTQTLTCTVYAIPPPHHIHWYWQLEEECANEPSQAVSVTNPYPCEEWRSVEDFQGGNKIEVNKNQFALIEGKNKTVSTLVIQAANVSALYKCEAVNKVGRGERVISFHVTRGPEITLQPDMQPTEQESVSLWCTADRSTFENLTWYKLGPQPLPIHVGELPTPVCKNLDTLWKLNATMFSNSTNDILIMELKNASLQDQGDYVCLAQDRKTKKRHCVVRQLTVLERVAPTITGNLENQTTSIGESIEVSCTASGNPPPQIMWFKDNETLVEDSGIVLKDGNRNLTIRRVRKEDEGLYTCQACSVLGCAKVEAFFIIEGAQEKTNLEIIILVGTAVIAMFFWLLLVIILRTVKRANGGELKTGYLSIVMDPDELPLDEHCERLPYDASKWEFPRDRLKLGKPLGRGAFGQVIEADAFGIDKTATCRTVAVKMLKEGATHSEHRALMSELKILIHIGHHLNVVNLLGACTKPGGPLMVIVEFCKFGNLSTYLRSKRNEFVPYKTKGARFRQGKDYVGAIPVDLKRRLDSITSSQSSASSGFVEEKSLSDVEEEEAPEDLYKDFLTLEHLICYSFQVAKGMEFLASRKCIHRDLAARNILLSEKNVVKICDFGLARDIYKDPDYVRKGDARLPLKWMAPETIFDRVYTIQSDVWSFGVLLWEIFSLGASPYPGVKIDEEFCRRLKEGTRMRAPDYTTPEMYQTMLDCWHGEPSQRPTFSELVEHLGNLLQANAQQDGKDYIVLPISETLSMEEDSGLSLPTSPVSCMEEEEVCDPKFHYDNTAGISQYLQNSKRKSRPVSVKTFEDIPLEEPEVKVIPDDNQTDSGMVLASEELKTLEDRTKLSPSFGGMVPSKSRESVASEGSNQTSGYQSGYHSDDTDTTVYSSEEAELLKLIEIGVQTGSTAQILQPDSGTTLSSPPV
How it was run: as §1

c-Met = molecular target: T4, c-Met (Homo sapiens, UniProt P08581); test: Kinase inhibition assay (33P transfer), c-Met; conditions: Table 2, class symbols A-E; read-out: Met-1
T4 construct: Kinases are expressed as either kinase domains or full length constructs; made in house
How it was run: (§2)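 Kinase domains or full-length enzymes, GST- or polyHis-tagged, were expressed in E. coli or baculovirus High Five cells and affinity-purified. Transfer of 33PO4 from ATP onto plate-bound poly(Glu,Tyr) 4:1 or poly(Arg,Ser) 3:1 was counted by liquid scintillation after a 0.5% phosphoric acid wash. IC50 = concentration halving incorporation.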

Zap-70 = molecular target: T5, Zap-70 (Homo sapiens, UniProt P43403); test: Kinase inhibition assay (33P transfer), Zap-70; conditions: Table 3, class symbols; read-out: Zap-1
T5 construct: Kinases are expressed as either kinase domains or full length constructs; made in house
T5 sequence (P43403 1-619): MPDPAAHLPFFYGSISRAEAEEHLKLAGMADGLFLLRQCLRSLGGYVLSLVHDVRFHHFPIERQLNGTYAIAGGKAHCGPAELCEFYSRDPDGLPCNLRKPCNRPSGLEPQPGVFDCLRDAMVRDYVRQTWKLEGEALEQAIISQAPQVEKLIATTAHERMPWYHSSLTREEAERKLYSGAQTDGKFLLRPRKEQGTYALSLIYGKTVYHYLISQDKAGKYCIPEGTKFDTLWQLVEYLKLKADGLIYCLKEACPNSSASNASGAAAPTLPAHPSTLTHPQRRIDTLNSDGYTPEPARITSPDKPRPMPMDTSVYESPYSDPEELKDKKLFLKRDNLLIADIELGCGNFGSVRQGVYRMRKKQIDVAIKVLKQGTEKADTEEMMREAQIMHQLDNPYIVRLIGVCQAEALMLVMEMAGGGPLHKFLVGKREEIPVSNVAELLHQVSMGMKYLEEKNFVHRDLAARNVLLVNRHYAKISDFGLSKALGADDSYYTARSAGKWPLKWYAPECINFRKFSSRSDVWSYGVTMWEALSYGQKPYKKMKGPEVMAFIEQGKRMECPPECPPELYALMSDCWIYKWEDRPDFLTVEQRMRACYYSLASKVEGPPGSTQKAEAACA
How it was run: as §1

Itk = molecular target: T6, Itk (Homo sapiens, UniProt Q08881); test: Kinase inhibition assay (33P transfer), Itk; conditions: Table 3, class symbols; read-out: Itk-1
T6 construct: Kinases are expressed as either kinase domains or full length constructs; made in house
T6 sequence (Q08881 1-620): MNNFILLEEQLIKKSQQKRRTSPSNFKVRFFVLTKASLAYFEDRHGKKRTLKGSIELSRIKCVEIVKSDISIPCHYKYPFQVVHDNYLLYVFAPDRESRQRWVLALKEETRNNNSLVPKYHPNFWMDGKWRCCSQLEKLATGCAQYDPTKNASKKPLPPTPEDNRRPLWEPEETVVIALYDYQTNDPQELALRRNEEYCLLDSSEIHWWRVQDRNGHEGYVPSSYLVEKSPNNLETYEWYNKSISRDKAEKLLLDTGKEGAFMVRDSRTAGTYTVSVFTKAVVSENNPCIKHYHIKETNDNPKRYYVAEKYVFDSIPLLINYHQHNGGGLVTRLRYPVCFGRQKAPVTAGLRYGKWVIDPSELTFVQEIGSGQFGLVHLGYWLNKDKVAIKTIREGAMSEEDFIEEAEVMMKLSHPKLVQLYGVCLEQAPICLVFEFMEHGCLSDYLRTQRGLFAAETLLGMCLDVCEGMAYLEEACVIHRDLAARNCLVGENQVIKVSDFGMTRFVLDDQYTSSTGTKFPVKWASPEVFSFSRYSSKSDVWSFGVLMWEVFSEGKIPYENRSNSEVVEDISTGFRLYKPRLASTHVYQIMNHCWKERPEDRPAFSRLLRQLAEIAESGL
How it was run: as §2

AKT = molecular target: T7, AKT (Homo sapiens, UniProt Q9Y243); test: Kinase inhibition assay (33P transfer), AKT; conditions: Table 2, class symbols A-E; read-out: AKT3-1
T7 construct: Kinases are expressed as either kinase domains or full length constructs; made in house
How it was run: as §1

IGFR-1 = molecular target: T8, IGFR-1 (Homo sapiens, UniProt P08069); test: Kinase inhibition assay (33P transfer), IGFR-1; conditions: Table 2, class symbols A-E
T8 construct: Kinases are expressed as either kinase domains or full length constructs; made in house
T8 sequence (P08069 31-1367): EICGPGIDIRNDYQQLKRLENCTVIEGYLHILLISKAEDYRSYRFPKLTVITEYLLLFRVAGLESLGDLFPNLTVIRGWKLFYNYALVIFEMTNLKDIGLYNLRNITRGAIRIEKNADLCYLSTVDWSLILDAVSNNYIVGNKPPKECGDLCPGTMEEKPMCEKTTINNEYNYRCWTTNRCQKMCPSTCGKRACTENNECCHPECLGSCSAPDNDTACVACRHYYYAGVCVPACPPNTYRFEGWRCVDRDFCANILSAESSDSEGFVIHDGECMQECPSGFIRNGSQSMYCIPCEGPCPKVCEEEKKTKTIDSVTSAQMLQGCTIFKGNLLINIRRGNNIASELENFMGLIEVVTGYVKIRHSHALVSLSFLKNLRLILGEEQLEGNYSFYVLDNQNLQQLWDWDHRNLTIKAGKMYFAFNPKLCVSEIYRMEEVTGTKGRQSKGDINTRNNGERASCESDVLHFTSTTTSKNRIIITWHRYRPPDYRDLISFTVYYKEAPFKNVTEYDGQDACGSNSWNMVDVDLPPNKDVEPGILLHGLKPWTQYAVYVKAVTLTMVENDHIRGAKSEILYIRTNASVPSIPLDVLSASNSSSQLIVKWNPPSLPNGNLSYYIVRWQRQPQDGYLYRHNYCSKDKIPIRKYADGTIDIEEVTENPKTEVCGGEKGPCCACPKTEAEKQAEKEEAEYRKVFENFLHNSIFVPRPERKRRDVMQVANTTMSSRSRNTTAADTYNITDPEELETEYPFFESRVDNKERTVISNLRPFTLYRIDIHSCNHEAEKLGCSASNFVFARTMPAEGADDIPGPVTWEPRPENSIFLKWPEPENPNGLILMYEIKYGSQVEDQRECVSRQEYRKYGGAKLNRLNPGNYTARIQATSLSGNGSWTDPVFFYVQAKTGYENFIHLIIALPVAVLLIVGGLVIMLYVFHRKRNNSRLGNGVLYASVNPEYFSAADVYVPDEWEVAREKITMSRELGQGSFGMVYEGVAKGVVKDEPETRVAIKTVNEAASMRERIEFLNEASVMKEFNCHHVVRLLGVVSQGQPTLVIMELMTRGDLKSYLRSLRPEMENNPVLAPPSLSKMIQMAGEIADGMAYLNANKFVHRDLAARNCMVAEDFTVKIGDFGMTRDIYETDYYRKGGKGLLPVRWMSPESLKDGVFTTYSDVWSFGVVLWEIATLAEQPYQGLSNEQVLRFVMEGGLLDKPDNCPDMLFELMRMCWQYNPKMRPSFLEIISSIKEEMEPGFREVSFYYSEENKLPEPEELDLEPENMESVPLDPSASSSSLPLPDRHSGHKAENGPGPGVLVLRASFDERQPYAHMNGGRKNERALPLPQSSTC

EGFR = molecular target: T9, EGFR (Homo sapiens, UniProt P00533); test: Kinase inhibition assay (33P transfer), EGFR; conditions: Table 2, class symbols A-E; read-out: EGFR-1
T9 construct: Kinases are expressed as either kinase domains or full length constructs; made in house
T9 sequence (P00533 25-1210, species assumed): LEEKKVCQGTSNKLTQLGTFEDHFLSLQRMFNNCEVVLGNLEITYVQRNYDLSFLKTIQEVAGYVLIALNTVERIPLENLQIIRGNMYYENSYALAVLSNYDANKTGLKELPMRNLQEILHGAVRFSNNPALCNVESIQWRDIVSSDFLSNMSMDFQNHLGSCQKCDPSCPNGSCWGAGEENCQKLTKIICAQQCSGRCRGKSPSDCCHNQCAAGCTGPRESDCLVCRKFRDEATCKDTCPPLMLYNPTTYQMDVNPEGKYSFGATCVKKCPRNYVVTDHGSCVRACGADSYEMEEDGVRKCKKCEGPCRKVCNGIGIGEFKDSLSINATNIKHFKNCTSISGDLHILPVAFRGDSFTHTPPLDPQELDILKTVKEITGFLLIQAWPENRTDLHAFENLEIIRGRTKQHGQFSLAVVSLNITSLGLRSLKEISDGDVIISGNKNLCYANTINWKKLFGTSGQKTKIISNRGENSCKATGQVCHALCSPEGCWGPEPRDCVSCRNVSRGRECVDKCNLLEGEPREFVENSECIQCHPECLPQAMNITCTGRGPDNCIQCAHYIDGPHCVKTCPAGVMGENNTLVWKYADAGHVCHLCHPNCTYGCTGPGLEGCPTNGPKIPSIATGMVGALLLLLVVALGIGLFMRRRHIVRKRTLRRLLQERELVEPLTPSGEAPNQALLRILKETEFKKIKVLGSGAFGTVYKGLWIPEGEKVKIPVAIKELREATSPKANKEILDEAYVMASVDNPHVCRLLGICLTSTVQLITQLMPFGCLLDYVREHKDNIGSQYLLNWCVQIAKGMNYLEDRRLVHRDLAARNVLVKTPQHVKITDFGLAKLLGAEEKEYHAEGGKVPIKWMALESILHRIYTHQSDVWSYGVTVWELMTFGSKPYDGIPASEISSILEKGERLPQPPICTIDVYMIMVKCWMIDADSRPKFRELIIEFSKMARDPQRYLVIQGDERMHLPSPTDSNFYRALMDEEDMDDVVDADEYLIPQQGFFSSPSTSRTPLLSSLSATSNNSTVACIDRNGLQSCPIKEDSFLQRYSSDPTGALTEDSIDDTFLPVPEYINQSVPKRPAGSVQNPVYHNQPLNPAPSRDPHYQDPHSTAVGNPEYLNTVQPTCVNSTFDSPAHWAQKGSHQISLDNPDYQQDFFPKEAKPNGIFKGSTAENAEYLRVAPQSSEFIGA
How it was run: as §2

ErbB2 = molecular target: T10, ErbB2 (Homo sapiens, UniProt P04626); test: Kinase inhibition assay (33P transfer), ErbB2; conditions: read-out: ErbB2-2
T10 construct: Kinases are expressed as either kinase domains or full length constructs; made in house
T10 sequence (P04626 23-1255, species assumed): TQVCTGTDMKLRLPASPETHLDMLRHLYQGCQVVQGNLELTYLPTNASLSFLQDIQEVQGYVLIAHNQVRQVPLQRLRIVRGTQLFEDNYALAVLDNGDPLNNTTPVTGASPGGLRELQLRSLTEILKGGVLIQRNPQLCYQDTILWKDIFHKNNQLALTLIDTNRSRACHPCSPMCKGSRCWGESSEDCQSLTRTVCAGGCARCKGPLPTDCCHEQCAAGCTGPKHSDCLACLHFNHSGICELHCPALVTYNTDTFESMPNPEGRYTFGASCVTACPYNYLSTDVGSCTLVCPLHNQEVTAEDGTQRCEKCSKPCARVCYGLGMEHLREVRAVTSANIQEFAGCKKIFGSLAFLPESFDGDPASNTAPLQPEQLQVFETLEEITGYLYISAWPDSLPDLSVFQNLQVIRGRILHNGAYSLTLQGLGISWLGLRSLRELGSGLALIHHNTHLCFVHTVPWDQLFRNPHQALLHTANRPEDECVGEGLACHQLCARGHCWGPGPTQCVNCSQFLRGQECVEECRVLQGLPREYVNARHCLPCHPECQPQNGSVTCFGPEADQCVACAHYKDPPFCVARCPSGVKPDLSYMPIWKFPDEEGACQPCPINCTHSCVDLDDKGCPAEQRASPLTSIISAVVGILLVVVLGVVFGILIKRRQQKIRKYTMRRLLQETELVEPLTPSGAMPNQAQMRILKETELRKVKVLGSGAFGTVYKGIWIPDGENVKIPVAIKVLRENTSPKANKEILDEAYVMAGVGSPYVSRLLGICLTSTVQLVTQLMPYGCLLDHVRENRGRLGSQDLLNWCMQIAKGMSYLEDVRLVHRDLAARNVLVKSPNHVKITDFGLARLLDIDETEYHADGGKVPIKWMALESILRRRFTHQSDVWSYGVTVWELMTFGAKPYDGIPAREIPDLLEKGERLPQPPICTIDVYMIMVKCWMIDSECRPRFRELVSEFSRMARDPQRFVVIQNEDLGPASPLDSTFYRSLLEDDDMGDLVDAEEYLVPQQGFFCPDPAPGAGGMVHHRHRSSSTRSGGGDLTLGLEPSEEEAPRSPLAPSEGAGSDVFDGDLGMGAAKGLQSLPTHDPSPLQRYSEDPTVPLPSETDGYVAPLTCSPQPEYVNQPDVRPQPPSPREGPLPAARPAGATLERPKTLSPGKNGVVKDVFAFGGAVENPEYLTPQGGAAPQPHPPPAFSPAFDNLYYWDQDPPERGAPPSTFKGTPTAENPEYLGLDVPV
How it was run: as §2

Row | IC50 (PDGFRB) [µM] | IC50 (Lck) | IC50 (Kdr) [µM] | IC50 (c-Met) [µM] | IC50 (Zap-70) [µM] | IC50 (Itk) | IC50 (AKT) | IC50 (IGFR-1) | IC50 (EGFR) | IC50 (ErbB2) | SMILES
1 | 0.912 to 5.47 | > 10.3 µM | > 10.3 | 7.98 to 10.3 | > 10.3 | 7.98 to 10.3 µM | > 10.3 µM | 5.47 to 7.98 µM | > 10.3 µM | > 10.3 µM | COC(=O)c1ccc(-c2cc(Nc3ncnc(Nc4cccc5ncccc45)n3)[nH]n2)cc1 [Compound 878]
2 | > 10.6 | > 10.6 µM | > 10.6 | > 10.6 | > 10.6 | > 10.6 µM | > 10.6 µM | 8.27 to 10.6 µM | > 10.6 µM | > 10.6 µM | COC(=O)c1ccc(-c2cc(Nc3ncnc(Nc4cc(F)cc(F)c4)n3)[nH]n2)cc1 [Compound 810]
3 | 1 to 6.01 | 8.76 to 11.3 µM | < 1 | 1 to 6.01 | 6.01 to 8.76 | 1 to 6.01 µM | 1 to 6.01 µM | 1 to 6.01 µM | < 1 µM | 1 to 6.01 µM | O=S(=O)(O)c1cccc(Nc2ncnc(Nc3cc(-c4ccco4)[nH]n3)n2)c1 [Compound 825]
4 | < 1.15 | > 12.9 µM | > 12.9 | > 12.9 | > 12.9 | 6.89 to 10 µM | > 12.9 µM | > 12.9 µM | < 1.15 µM | > 12.9 µM | COc1ccc(Nc2ncnc(Nc3cccc(C#N)c3)n2)cc1OC [Compound 897]
5 | > 9.52 | > 9.52 µM | 0.847 to 5.08 | 0.847 to 5.08 | > 9.52 | > 9.52 µM | > 9.52 µM | > 9.52 µM | > 9.52 µM | > 9.52 µM | COc1cc(Nc2ncnc(-c3cccnc3Nc3ccc(C(C)=O)cc3)n2)cc(OC)c1OC [Compound 832]
6 | < 0.994 | > 11.2 µM and 0.994 to 5.96 µM | < 0.994 | > 11.2 | > 11.2 | > 11.2 µM and 8.7 to 11.2 µM | 8.7 to 11.2 µM and > 11.2 µM | > 11.2 µM and 8.7 to 11.2 µM | > 11.2 µM and 0.994 to 5.96 µM | > 11.2 µM and 0.994 to 5.96 µM | OCc1cccc(Nc2ncnc(-c3cccnc3NCc3ccc(F)cc3)n2)c1 [Compound 1104]
7 | > 8.53 | > 8.53 µM | > 8.53 | > 8.53 | > 8.53 | > 8.53 µM | > 8.53 µM | > 8.53 µM | > 8.53 µM | > 8.53 µM | COc1cc(Nc2ncnc(-c3cccnc3NC3CCN(Cc4ccccc4)CC3)n2)cc(OC)c1OC [Compound 847]
8 | < 1 | 6.01 to 8.77 µM | 1 to 6.01 | > 11.3 | > 11.3 | > 11.3 µM | > 11.3 µM | < 1 µM | < 1 µM | > 11.3 µM | NC(=O)Cc1cccc(Nc2ncnc(Nc3cccc(Br)c3)n2)c1 [Compound 966]
9 | > 9.86 | > 9.86 µM | > 9.86 | > 9.86 | > 9.86 | > 9.86 µM | > 9.86 µM | 5.26 to 7.67 µM | > 9.86 µM | > 9.86 µM | COC(=O)c1ccc(-c2cc(Nc3ncnc(Nc4cc(Cl)cc(Cl)c4)n3)[nH]n2)cc1 [Compound 811]
10 | > 11.7 | > 11.7 µM | > 11.7 | > 11.7 | > 11.7 | > 11.7 µM | > 11.7 µM | > 11.7 µM | > 11.7 µM |  | COc1ccc(Nc2ncnc(NCc3ccc(C)c(Cl)c3)n2)cc1OC [Compound 793]
11 |  | > 11.8 µM | 6.29 to 9.18 | 1.05 to 6.29 | > 11.8 | > 11.8 µM | > 11.8 µM | 6.29 to 9.18 µM | > 11.8 µM | 9.18 to 11.8 µM | COc1ccc(Nc2ncnc(N(C)c3ccc(C(=O)O)cc3)n2)cc1OC [Compound 860]
12 |  | > 11.8 µM | > 11.8 | < 1.05 | > 11.8 | > 11.8 µM | > 11.8 µM | > 11.8 µM | 1.05 to 6.28 µM | > 11.8 µM | COc1ccc(Nc2ncnc(N(C)c3ccc([N+](=O)[O-])cc3)n2)cc1OC [Compound 862]
13 |  | 0.843 to 5.06 µM | 0.843 to 5.06 | 0.843 to 5.06 | > 9.48 | 0.843 to 5.06 µM | 5.06 to 7.38 µM | 0.843 to 5.06 µM | < 0.843 µM | < 0.843 µM | c1ccc(Cn2ncc3cc(Nc4ncnc(Nc5cccc(Cn6ccnn6)c5)n4)ccc32)cc1 [Compound 676]
14 |  | > 9.97 µM | < 0.886 | > 9.97 | > 9.97 | > 9.97 µM | > 9.97 µM | > 9.97 µM | 0.886 to 5.32 µM | 0.886 to 5.32 µM | COC(=O)c1cccc(Nc2ncnc(-n3c(NCc4ccccc4)nc4ccccc43)n2)c1 [Compound 1067]
15 |  | > 11.1 µM | > 11.1 | > 11.1 | > 11.1 | > 11.1 µM | > 11.1 µM | 5.91 to 8.61 µM | > 11.1 µM | 0.984 to 5.91 µM | COc1ccc(Nc2ncnc(Nc3ccc4c(c3)C(=O)N(C)C4=O)n2)cc1OC [Compound 856]
16 |  | 1.08 to 6.45 µM | 1.08 to 6.45 | < 1.08 | > 12.1 | > 12.1 µM | > 12.1 µM | 1.08 to 6.45 µM | < 1.08 µM | 1.08 to 6.45 µM | CN(c1cccc(Cl)c1)c1ncnc(Nc2ccc(OCCO)cc2)n1 [Compound 641]
17 |  | 1 to 6 µM | 1 to 6 | 1 to 6 | > 11.3 | > 11.3 µM | > 11.3 µM | > 11.3 µM | < 1 µM | < 1 µM | CCOc1ccc(Nc2ncnc(N(C)c3cccc(Cl)c3)n2)cc1OCC [Compound 640]
18 |  | 1.09 to 6.53 µM | 1.09 to 6.53 | 1.09 to 6.53 | > 12.2 | > 12.2 µM | > 12.2 µM | > 12.2 µM | < 1.09 µM | 6.53 to 9.53 µM | COc1ccc(N(C)c2ncnc(Nc3ccc(OC)c(OC)c3)n2)cc1 [Compound 863]
19 |  | > 10.2 µM | > 10.2 | > 10.2 | > 10.2 | > 10.2 µM | > 10.2 µM | > 10.2 µM | 5.44 to 7.94 µM | > 10.2 µM | COc1ccc(Nc2ncnc(NCc3ncc(C(F)(F)F)cc3Cl)n2)cc1OC [Compound 858]

Row | SMILES | IC50 (PDGFRB) [µM] | IC50 (Lck) | IC50 (Kdr) [µM] | IC50 (c-Met) [µM] | IC50 (Zap-70) [µM] | IC50 (Itk) | IC50 (AKT) | IC50 (IGFR-1) | IC50 (EGFR) | IC50 (ErbB2)
20 | COc1ccc(Nc2ncnc(N(C)C3CCN(C)CC3)n2)cc1OC [Compound 861] |  | > 12.6 µM | > 12.6 | > 12.6 | > 12.6 | > 12.6 µM | > 12.6 µM | > 12.6 µM | > 12.6 µM | 6.7 to 9.76 µM
